From US12528826B2, “[1,4]oxazepino[2,3-c]quinolinone derivatives as BCL6 inhibitors” (Cancer Research Technology Limited, priority 2019, dated 2026)

Molecular target: T1, Trx-6×His-BCL6 (human BCL6 BTB domain covering amino-acid sequence 5-129) (Homo sapiens, UniProt P41182)
T1 construct: made in house
Test: HTRF assay (BCL6 / BCOR peptide)
Format: binding
Details: 1 nM Trx-6×His-BCL6, 300 nM BCOR-AF633 peptide, 2 hours incubation at room temperature
Protocol: After 2 hours incubation at room temperature the plate was read on a Pherastar FSX (BMG Labtech) plate reader equipped with 337 nm laser excitation filter, a first emission filter at 620 nm and a second emission filter at 665 nm. The % inhibition at each concentration was calculated by normalising FRET ratio to the appropriate high (DMSO with all reagents) and low (DMSO without BCL6) controls.

| SMILES | HTRF avg pIC50 |
| --- | --- |
| Cn1c(=O)c2c(c3cc(Nc4nc(N5C[C@@H](O)C[C@@H](F)C5)ncc4Cl)ccc31)N[C@@H](C1CC1)C(F)(F)CO2 [Example 9a, (S)-10-((5-chloro-2-((3S,5R)-3-fluoro-5-hydroxypiperidin-1-yl)pyrimidin-4-yl)amino)-2-cyclopropyl-3,3-difluoro-7-methyl-1,2,3,4-tetrahydro-[1,4]oxazepino[2,3-c]quinolin-6(7H)-one: (S)-10-((5-chloro-2-((3R,5S)-3-fluoro-5-hydroxypiperidin-1-yl)pyrimidin-4-yl)amino)-2-cyclopropyl-3,3-difluoro-7-methyl-1,2,3,4-tetrahydro-[1,4]oxazepino[2,3-c]quinolin-6(7H)-one (1:1)] | 8.60 |

Same assay, conditions: 1 nM Trx-6×His-BCL6, 300 nM BCOR-AF633 peptide, 2 hours incubation at room temperature; read-out: HTRF avg pIC50 (converted)

| SMILES | IC50 [nM] |
| --- | --- |
| C[C@@H]1CCN(c2ncc(Cl)c(Nc3ccc4c(c3)c3c(c(=O)n4C)OCC(F)(F)[C@H](C4CC4)N3)n2)C1 [Example 12x02, (S)-10-((5-chloro-2-((R)-3-methylpyrrolidin-1-yl)pyrimidin-4-yl)amino)-2-cyclopropyl-3,3-difluoro-7-methyl-1,2,3,4-tetrahydro-[1,4]oxazepino[2,3-c]quinolin-6(7H)-one] | 21.4 |
| CC1CCC(C)N(c2ncc(Cl)c(Nc3ccc4c(c3)c3c(c(=O)n4C)OCC(F)(F)[C@H](C4CC4)N3)n2)C1 (stereo partly drawn) [Example 12x12, (2S)-10-((5-chloro-2-(2,5-dimethylpiperidin-1-yl)pyrimidin-4-yl)amino)-2-cyclopropyl-3,3-difluoro-7-methyl-1,2,3,4-tetrahydro-[1,4]oxazepino[2,3-c]quinolin-6(7H)-one] | 56.2 |
| CC1CCN1c1ncc(Cl)c(Nc2ccc3c(c2)c2c(c(=O)n3C)OCC(F)(F)[C@H](C3CC3)N2)n1 (mixture of isomers) [Example 12x36, (2S)-10-((5-chloro-2-(2-methylazetidin-1-yl)pyrimidin-4-yl)amino)-2-cyclopropyl-3,3-difluoro-7-methyl-1,2,3,4-tetrahydro-[1,4]oxazepino[2,3-c]quinolin-6(7H)-one] | 7.76 |
| Cn1c(=O)c2c(c3cc(Nc4nc(N5CC(CO)C5)ncc4Cl)ccc31)N[C@@H](C1CC1)C(F)(F)CO2 [Example 12x32, (S)-10-((5-chloro-2-(3-(hydroxymethyl)azetidin-1-yl)pyrimidin-4-yl)amino)-2-cyclopropyl-3,3-difluoro-7-methyl-1,2,3,4-tetrahydro-[1,4]oxazepino[2,3-c]quinolin-6(7H)-one] | 3.72 |
| C[C@H]1C[C@H](O)CN(c2ncc(Cl)c(Nc3ccc4c(c3)c3c(c(=O)n4C)OCC(F)(F)[C@H](C4CC4)N3)n2)C1 [Example 12x13, (S)-10-((5-chloro-2-((3S,5S)-3-hydroxy-5-methylpiperidin-1-yl)pyrimidin-4-yl)amino)-2-cyclopropyl-3,3-difluoro-7-methyl-1,2,3,4-tetrahydro-[1,4]oxazepino[2,3-c]quinolin-6(7H)-one] | 5.62 |
| CC1CC(CC(=O)N2CCC2)CN(c2ncc(Cl)c(Nc3ccc4c(c3)c3c(c(=O)n4C)OCC(F)(F)[C@H](C4CC4)N3)n2)C1 (single isomer, unassigned) [Example 12x16a] | 2.04 |
| [2H]C([2H])([2H])n1c(=O)c2c(c3cc(Nc4nc(N5C6CCC5COC6)ncc4Cl)cnc31)N[C@@H](C1CC1)C(F)(F)CO2 [Example 3a, (S)-10-((2-(3-oxa-8-azabicyclo[3.2.1]octan-8-yl)-5-chloropyrimidin-4-yl)amino)-2-cyclopropyl-3,3-difluoro-7-(methyl-d3)-1,2,3,4-tetrahydro-[1,4]oxazepino[2,3-c][1,8]naphthyridin-6(7H)-one] | 1.62 |
| CC(=O)N1C2CCC1CN(c1ncc(Cl)c(Nc3ccc4c(c3)c3c(c(=O)n4C)OCC(F)(F)[C@H](C4CC4)N3)n1)C2 (single isomer, unassigned) [Example 7b] | 1.62 |
| Cn1c(=O)c2c(c3cc(Nc4nc(N5C[C@H](O)C[C@H](F)C5)ncc4Cl)ccc31)N[C@@H](C1CC1)C(F)(F)CO2 [Example 9a-1, (S)-10-((5-chloro-2-((3S,5R)-3-fluoro-5-hydroxypiperidin-1-yl)pyrimidin-4-yl)amino)-2-cyclopropyl-3,3-difluoro-7-methyl-1,2,3,4-tetrahydro-[1,4]oxazepino[2,3-c]quinolin-6(7H)-one] | 1.82 |

Second part, the compound after the results:

| IC50 [nM] | SMILES |
| --- | --- |
| 20.9 | Cn1c(=O)c2c(c3cc(Nc4nc(N5CC[C@@H](F)[C@@H](F)C5)ncc4F)ccc31)N[C@@H](C1CC1)C(F)(F)CO2 (racemic) [Example 10d, (S)-10-((5-fluoro-2-((3S,4R)-3,4-difluoropiperidin-1-yl)pyrimidin-4-yl)amino)-2-cyclopropyl-3,3-difluoro-7-methyl-1,2,3,4-tetrahydro-[1,4]oxazepino[2,3-c]quinolin-6(7H)-one; (S)-10-((5-fluoro-2-((3R,4S)-3,4-difluoropiperidin-1-yl)pyrimidin-4-yl)amino)-2-cyclopropyl-3,3-difluoro-7-methyl-1,2,3,4-tetrahydro-[1,4]oxazepino[2,3-c]quinolin-6(7H)-one] |
| 30.9 | Cn1c(=O)c2c(c3cc(Nc4cc(N5CCC(F)(F)CC5)ncc4Cl)ccc31)N[C@@H](C1CC1)C(F)(F)CO2 [Example 13b] |
| 11.5 | Cn1c(=O)c2c(c3cc(Nc4nc(N5CC(C(F)F)C5)ncc4Cl)ccc31)N[C@@H](C1CC1)C(F)(F)CO2 [Example 11u, (S)-10-((5-chloro-2-(3-(difluoromethyl)azetidin-1-yl)pyrimidin-4-yl)amino)-2-cyclopropyl-3,3-difluoro-7-methyl-1,2,3,4-tetrahydro-[1,4]oxazepino[2,3-c]quinolin-6(7H)-one] |
| 3.89 | Cn1c(=O)c2c(c3cc(Nc4nc(N5CC(C)(C#N)C5)ncc4Cl)ccc31)N[C@@H](C1CC1)C(F)(F)CO2 [Example 11s, (S)-1-(5-chloro-4-((2-cyclopropyl-3,3-difluoro-7-methyl-6-oxo-1,2,3,4,6,7-hexahydro-[1,4]oxazepino[2,3-c]quinolin-10-yl)amino)pyrimidin-2-yl)-3-methylazetidine-3-carbonitrile] |
| 2.88 | Cn1c(=O)c2c(c3cc(Nc4nc(N5CCC[C@@H](CO)C5)ncc4Cl)ccc31)N[C@@H](C1CC1)C(F)(F)CO2 [Example 9p, (S)-10-((5-chloro-2-((R)-3-(hydroxymethyl)piperidin-1-yl)pyrimidin-4-yl)amino)-2-cyclopropyl-3,3-difluoro-7-methyl-1,2,3,4-tetrahydro-[1,4]oxazepino[2,3-c]quinolin-6(7H)-one] |
| 30.9 | CCCN(C)c1ncc(Cl)c(Nc2ccc3c(c2)c2c(c(=O)n3C)OCC(F)(F)[C@H](C3CC3)N2)n1 [Example 11i, (S)-10-((5-chloro-2-(methyl(propyl)amino)pyrimidin-4-yl)amino)-2-cyclopropyl-3,3-difluoro-7-methyl-1,2,3,4-tetrahydro-[1,4]oxazepino[2,3-c]quinolin-6(7H)-one] |
| 2.69 | CN(C)[C@@H]1CCCN(c2ncc(Cl)c(Nc3ccc4c(c3)c3c(c(=O)n4C)OCC(F)(F)[C@H](C4CC4)N3)n2)C1 [Example 9i, (S)-10-((5-chloro-2-((R)-3-(dimethylamino)piperidin-1-yl)pyrimidin-4-yl)amino)-2-cyclopropyl-3,3-difluoro-7-methyl-1,2,3,4-tetrahydro-[1,4]oxazepino[2,3-c]quinolin-6(7H)-one] |
